Reference: patent US20240402196A1 (Exact Sciences Corporation, priority 2018, published 2024)
Structures can show the parent of a compound that is named as a salt. Each block holds one compound with its values, some of them ahead of it.

Experiments:
[1] = molecular target: T1, hemoglobin in stool samples (Homo sapiens, UniProt P68871+P69905); experiment: 3-Day shipping simulation, hemoglobin % recovery by ELISA; parameters: from tissue; host or cells: stool samples;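 also: stool samples put through shipping stress in a thermal cycler, hemoglobin quantified by ELISA before and after, stability given as post-stress % of the pre-stress level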
T1 sequence (P69905 2-142 limits assumed): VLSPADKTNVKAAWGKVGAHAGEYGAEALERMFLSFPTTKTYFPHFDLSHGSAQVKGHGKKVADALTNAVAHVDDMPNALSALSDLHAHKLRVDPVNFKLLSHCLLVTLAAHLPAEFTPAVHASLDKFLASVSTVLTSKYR
T1 sequence (P68871 2-147 limits assumed): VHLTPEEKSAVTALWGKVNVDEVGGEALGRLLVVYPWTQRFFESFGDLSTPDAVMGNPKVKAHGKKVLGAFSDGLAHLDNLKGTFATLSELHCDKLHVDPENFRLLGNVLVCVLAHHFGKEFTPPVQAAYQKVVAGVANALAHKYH

[2] = molecular target: T1, hemoglobin in stool samples; experiment: Accelerated shipping simulation (35C 16 hour challenge), hemoglobin % recovery by ELISA; parameters: from tissue; host or cells: stool samples;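 also: stool hemoglobin measured by ELISA before and after thermal-cycler shipping stress, stability given as percent of pre-stress hemoglobin recovered afterwards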

Compound: O=c1cc(-c2ccccc2)oc2c(O)c(O)ccc12 [7,8 dihydroxyflavone]
- Results ([1]; additive concentration 0.5 mM): No improvement
- Results ([1]; additive concentration 1 mM): No improvement

- Results ([2]; additive concentration 0.2 uM): No Improvement
- Results ([2]; additive concentration 5 uM): No Improvement
- Results ([2]; additive concentration 10 uM): No Improvement
- Results ([2]; additive concentration 100 uM): No Improvement
- Results ([2]; additive concentration 10 mM): No Improvement
- Results ([2]; additive concentration 25 mM): No Improvement
- Results ([2]; additive concentration l uM): No Improvement
- Results ([1]; additive concentration 0.5 mM): No improvement
- Results ([1]; additive concentration 1 mM): No improvement
- Results ([1]; additive concentration 5 mM): No improvement
Compound: O=C1O[C@H]([C@@H](O)CO)C(O)=C1O [Ascorbic Acid]

- Results ([1]; Additive Concentration 0.0002%): No improvement
- Results ([1]; Additive Concentration 0.0010%): No improvement
- Results ([1]; Additive Concentration 0.0020%): No improvement
Compound: O=[N+]([O-])C1(Br)COCOC1 [Bronidox]

Compound: CCC(=O)[O-].CCC(=O)[O-].[Ca+2] [Calcium Propionate]
- Results ([1]; additive concentration 5 mM): Calcium cation shows
- Results ([1]; additive concentration 10 mM): Calcium cation shows
- Results ([1]; additive concentration 20 mM): Calcium cation shows
- Results ([1]; additive concentration 30 mM): Calcium cation shows
- Results ([1]; additive concentration 40 mM): Calcium cation shows
- Results ([1]; additive concentration 50 mM): Calcium cation shows

Compound: [Cl][Co][Cl] [Cobalt Chloride]
- Results ([1]; additive concentration 0.001M): No Improvement
- Results ([1]; additive concentration 0.01M): No Improvement
- Results ([1]; additive concentration 0.05M): No Improvement

- Results ([1]; additive concentration 1 mM): No Improvement
- Results ([1]; additive concentration 10 mM): No Improvement
- Results ([1]; additive concentration 25 mM): No Improvement
Compound: [Cl][Cu][Cl] [Copper Chloride]

Compound: O=c1c(-c2ccc(O)cc2)coc2cc(O)ccc12 [Diadzein]
- Results ([1]; Additive Concentration 60 mM): No improvement
- Results ([1]; additive concentration 25 uM): No improvement
- Results ([1]; additive concentration 50 uM): No improvement
- Results ([1]; additive concentration 100 uM): No improvement
- Results ([1]; additive concentration 40 mM): No improvement
- Results ([1]; additive concentration 50 mM): No improvement

Compound: C=O [Formaldehyde Solution]
- Results ([1]; additive concentration 0.010%): No Improvement
- Results ([1]; additive concentration 0.020%): No Improvement
- Results ([1]; additive concentration 0.030%): No Improvement
- Results ([1]; additive concentration 0.035%): No Improvement
- Results ([1]; additive concentration 0.040%): No Improvement
- Results ([1]; additive concentration 0.050%): No Improvement
- Results ([1]; additive concentration 0.060%): No Improvement
- Results ([1]; additive concentration 0.070%): No Improvement
- Results ([1]; additive concentration 0.080%): No Improvement
- Results ([1]; additive concentration 0.090%): No Improvement
- Results ([1]; additive concentration 0.100%): No Improvement
- Results ([1]; additive concentration […]): No Improvement

- Results ([1]; additive concentration 0.010%): No Improvement
- Results ([1]; additive concentration 0.020%): No Improvement
- Results ([1]; additive concentration 0.030%): No Improvement
- Results ([1]; additive concentration 0.035%): No Improvement
- Results ([1]; additive concentration 0.040%): No Improvement
- Results ([1]; additive concentration 0.050%): No Improvement
- Results ([1]; additive concentration 0.060%): Assay Interference
- Results ([1]; additive concentration 0.070%): Assay Interference
- Results ([1]; additive concentration 0.080%): No Improvement
- Results ([1]; additive concentration 0.090%): No Improvement
- Results ([1]; additive concentration 0.100%): No Improvement
Compound: O=CCCCC=O [Glutaraldehyde Solution]

- Results ([1]; additive concentration 1 mM): No Improvement
- Results ([1]; additive concentration 5 mM): No Improvement
- Results ([1]; additive concentration 10 mM): No Improvement
Compound: [Cl][Fe]([Cl])[Cl] [Iron (3) Chloride]

Compound: Cn1sccc1=O [Methylisothiazolone]
- Results ([1]; Additive Concentration 0.0001%): No improvement
- Results ([1]; Additive Concentration 0.0002%): No improvement
- Results ([1]; Additive Concentration 0.0010%): No improvement
- Results ([1]; Additive Concentration 0.0020%): No improvement
- Results ([1]; additive concentration 0.00005%): No improvement

Compound: [Cl][Ni][Cl] [Nickel Chloride]
- Results ([1]; additive concentration 1 mM): No Improvement
- Results ([1]; additive concentration 10 mM): No Improvement
- Results ([1]; additive concentration 25 mM): No Improvement

- Results ([2]; additive concentration 1.25 uM): Improvement in % Hb
- Results ([2]; additive concentration 5 uM): Improvement in % Hb
Compound: C=CC1=C(C)c2cc3[n-]c(cc4nc(cc5[n-]c(cc1n2)c(C)c5C=C)C(C)=C4CCC(=O)O)c(CCC(=O)O)c3C.[Cl-].[Co+3] [Protoporphyrin IX Cobalt (Vendor 2)]

- Results ([2]; additive concentration 1.25 uM): Improvement in % Hb
- Results ([2]; additive concentration 5 uM): Improvement in % Hb
Compound: C=CC1=C(C)c2cc3[n-]c(cc4nc(cc5[n-]c(cc1n2)c(C)c5C=C)C(C)=C4CCC(=O)O)c(CCC(=O)O)c3C.[Cl-].[Co+3] [Protoporphyrin IX Cobalt (Vendor 3)]

- Results ([2]; additive concentration 1.25 uM): No Improvement
- Results ([2]; additive concentration 5 uM): No Improvement
Compound: C=CC1=C(C)c2cc3[n-]c(cc4nc(cc5[n-]c(cc1n2)c(C)c5C=C)C(C)=C4CCC(=O)O)c(CCC(=O)O)c3C.[Cl-].[Ga+3] [Protoporphyrin IX Gallium]

- Results ([2]; additive concentration 5 uM): No Improvement
- Results ([2]; additive concentration 50 uM): No Improvement
- Results ([2]; additive concentration 5 mM): No Improvement
- Results ([2]; additive concentration 24 mM): No improvement
Compound: OC[C@H]1O[C@H](OC[C@H]2O[C@H](O[C@]3(CO)O[C@H](CO)[C@@H](O)[C@@H]3O)[C@H](O)[C@@H](O)[C@@H]2O)[C@H](O)[C@@H](O)[C@H]1O [Raffinose]

- Results ([1]; Additive Concentration 10 mM): No improvement
- Results ([1]; additive concentration 5 mM): No improvement
- Results ([1]; additive concentration 20 mM): No improvement
Compound: Oc1ccc(C=Cc2cc(O)cc(O)c2)cc1 [Resveratrol]

- Results ([2]; additive concentration 85 uM): No Improvement
- Results ([2]; additive concentration 850 uM): No Improvement
Compound: [F-].[Na+] [Sodium Fluoride]

Compound: O=S([O-])([O-])=S.[Na+].[Na+] [Sodium Thiosulfate]
- Results [2]: No Improvement

Compound: O=C([O-])CNCO.[Na+] [Soduim hyrdoxylmethyl glycinate]
- Results ([1]; additive concentration 10 mM): No Improvement
- Results ([1]; additive concentration 25 mM): No Improvement
- Results ([1]; additive concentration 50 mM): No Improvement
- Results ([1]; additive concentration 75 mM): No Improvement
- Results ([1]; additive concentration 90 mM): No Improvement

Compound: O=C(O)CCP(CCC(=O)O)CCC(=O)O [TCEP]
- Results ([2]; additive concentration 0.005 mM): No Improvement
- Results ([2]; additive concentration 0.01 mM): No Improvement
- Results ([2]; additive concentration 0.1 mM): No Improvement
- Results ([2]; additive concentration 250 uM): No Improvement
- Results ([2]; additive concentration 500 uM): No Improvement
- Results ([2]; additive concentration 750 uM): No Improvement
- Results ([2]; additive concentration 1 mM): No Improvement

- Results ([1]; Additive Concentration 0.10%): No improvement
- Results ([1]; Additive Concentration 1%): No improvement
- Results ([1]; Additive Concentration 10%): No improvement
Compound: Cc1c(C)c2c(c(C)c1O)CCC(C)(CCCC(C)CCCC(C)CCCC(C)C)O2 (stereo not shown) [Tocopherol]

- Results ([2]; additive concentration 25 uM): No Improvement
- Results ([2]; additive concentration 250 uM): No Improvement
- Results ([2]; additive concentration 500 uM): No Improvement
- Results ([2]; additive concentration 5 mM): No Improvement
- Results ([2]; additive concentration 50 mM): No Improvement
- Results ([2]; additive concentration 100 mM): No Improvement
Compound: NC(N)=O [Urea]

- Results ([2]; additive concentration 0.6 uM): No Improvement
- Results ([2]; additive concentration 6 uM): No Improvement
- Results ([2]; additive concentration 60 uM): No Improvement
Compound: O=c1[nH]c(=O)c2[nH]c(=O)[nH]c2[nH]1 [Uric Acid]

- Results ([1]; additive concentration 0.5 mM): No improvement
- Results ([1]; additive concentration 1 mM): No improvement
- Results ([1]; additive concentration 2 mM): No improvement
Compound: Cc1ncc(CO)c(CO)c1O [Vitamine B6 in HCl]

Compound: [Cl-].[Cl-].[Zn+2] [Zinc Chloride]
- Results ([1]; additive concentration 1 mM): No Improvement
- Results ([1]; additive concentration 10 mM): No Improvement
- Results ([1]; additive concentration 25 mM): No Improvement

- Results ([1]; Additive Concentration 5%): No improvement
- Results ([1]; Additive Concentration 10%): No improvement
- Results ([1]; Additive Concentration 25%): No improvement
Compound: N.N.N.O=C(O)C1=CC(=C(c2ccc(O)c(C(=O)O)c2)c2ccc(O)c(C(=O)O)c2)C=CC1=O [aurintircarboxylic acid ammonium salt]

- Results ([1]; Additive Concentration 1%): No Improvement
Compound: BSA (10 mM MOPS)

Compound: Deferoxamine Mesylate Salt
- Results ([2]; additive concentration 10 uM): No Improvement
- Results ([2]; additive concentration 100 uM): No Improvement
- Results ([2]; additive concentration 1 mM): No Improvement
- Results ([2]; additive concentration 5 mM): No Improvement

- Results ([2]; Additive Concentration 1 uM): No Improvement
- Results ([2]; additive concentration 0.2 uM): No Improvement
- Results ([2]; additive concentration 2 uM): No Improvement
- Results ([2]; additive concentration 0.5 mM): No Improvement
Compound: Dextran Sulphate

- Results ([2]; additive concentration 25 uM): No Improvement
- Results ([2]; additive concentration 250 uM): No Improvement
Compound: Heparin
